# Results taken from publication PMC6333900, “Discovery of peptide ligands targeting a specific ubiquitin-like domain–binding site in the deubiquitinase USP11” (The Journal of Biological Chemistry, 2018).
# *: point of attachment. 5TAMRA = CN(C)c1ccc2c(c1)Oc1cc(N(C)C)ccc1C21OC(=O)c2cc(C(=O)*)ccc21
# Columns and labels:
# Panc1 cells [1] = conditions: cited from earlier work
# Source text: (§1) Several reports link USP11 to cell cycle progression and proliferation, although the detailed mechanisms are only partially understood. For example, (i) cell growth assays in MCF-7 and MDA-MB-231 cells show an increase in cell numbers upon USP11 overexpression, whereas USP11 knockdown leads to growth inhibition ([48]); (ii) USP11 itself is under cell cycle control and turns over rapidly in G1 cells, especially upon DNA damage induction, whereas expression of USP11 in S phase is high and insensitive to DNA damage ([12]). Knockdown of USP11 results in the activation of DNA damage-response pathwa ...
# USP11 = conditions: cited from earlier work
# Source text: as §1
# [2] = system: KNS-42, U87, HeLa, MCF7, Panc1, NIH3T3 and BJ6 cell lines; test: Cellular delivery by GET system; format: cell-based; conditions: TAMRA-tagged peptide
# Source text: We next evaluated the effect of the FYLIR peptide ligand on cells in culture. The novel GET system, developed for highly efficient nucleic acid, protein and peptide delivery ([35]), was used to deliver the FYLIR peptide. GET is based on the use of cell-penetrating peptides modified with heparin-binding sequences, which enhance cellular uptake by endocytosis. The synthetic peptide, GET-FYLIR, designed for these studies harbored an N-terminal TAMRA fluorescent tag, for easy visualization, fused to the GET (P21 and 8 Arg ([35])) and FYLIR sequences. […] Having established efficient delivery, the peptide's effect was investigated by assessing cell viability.
# HeLa cells = test: Confocal microscopy, intracellular localization; format: cell-based, human; conditions: 10 μM, 24 h, confocal imaging
# Experimental: HeLa cells were plated onto 10-mm diameter glass coverslips (1 × 10^5 cells/coverslip). Cells treated with GET-FYLIR were fixed for 10 min in 3.7% (w/v) paraformaldehyde (Sigma), stained with 1 μg/ml Hoechst 33342 (Molecular Probes) for a further 10 min, washed, and mounted. Cells were imaged using an LSM880C confocal microscope (Zeiss, Germany). A ×63 objective lens was used with a […] laser used for Hoechst 33342 and a 561-nm DPSS laser for GET-FYLIR–transduced cells. Images were captured and processed using ZEN software (Zeiss, Germany).
# Panc1 cells [3] = test: Cell viability (Presto Blue assay), Panc1; format: cell-based, human
# Experimental: (§2) Cells were plated in 96-well plates (2.5 × 10^4 cells/well) and treated with GET-FYLIR (0–50 μM) for 24 h. Cells were also treated with GET-Scrambled as a control. After treatment, cells were washed with PBS and then incubated for 15 min at 37 °C with a 100-μl Presto Blue solution (10% Presto Blue, Invitrogen in Hanks' balanced salt solution, Sigma). Change in the fluorescence was measured using a plate reader with the excitation/emission wavelengths set at 560/590 nm (Infinite® 200 PRO, TECAN), with untreated cells used as a control. All data sets were combined for the statistical analysis. A Sidak's multiple comparisons test was applied. N refers to the number of biological replicates.
# [4] = system: BJ6 human dermal fibroblasts; test: Cell viability (Presto Blue assay), BJ6; format: cell-based; conditions: 24 h; for cell viability: n = 3
# Experimental: as §2
# U87 cells = test: Cell viability (Presto Blue assay), U87; format: cell-based, human; conditions: 24 h, n = 3
# Experimental: as §2
# NIH3T3 cells [5] = test: Cell viability (Presto Blue assay), NIH3T3; format: cell-based; conditions: for cell viability: 24 h, Presto Blue, n = 3
# Experimental: as §2
# Panc1 cells [6] = test: Cell uptake (flow cytometry), Panc1; format: cell-based, human; conditions: 1 h and 24 h, compared with NIH3T3, flow cytometry
# Experimental: (§3) Cells treated with GET-FYLIR or GET-Scrambled were analyzed on an Astrios cell sorter using a 488-nm […] laser (40,000 cells; gated on live cells by forward/side scatter). Gmean was used as the average cell intensity. All data sets were combined for the statistical analysis. A Sidak's multiple comparisons test was applied. N refers to the number of biological replicates.
# NIH3T3 cells [7] = test: Cell uptake (flow cytometry), NIH3T3; format: cell-based; conditions: compared with Panc1, flow cytometry
# Experimental: as §3
# Panc1 cells [8] = test: Cell cycle analysis (propidium iodide, flow cytometry), Panc1; format: cell-based, human; conditions: Panc1, 20 μM, 24 h, p < 0.0001, n = 7
# Experimental: (§4) Cells were plated in 24-well plates (1 × 10^5 cells/well) and treated with GET-FYLIR (20 μM) for 24 h. The cells were treated with trypsin, detached from the plate, and centrifuged at 200 × g for 5 min. The supernatant was aspirated, and the cells were resuspended in PBS. The cells were fixed in 70% ethanol for 1 h at 4 °C. The cells were washed with PBS and incubated in propidium iodide staining solution (0.1% (v/v) Triton X-100, 10 μg/ml propidium iodide (Sigma), and 100 μg/ml DNase-free RNase A in PBS) for 30 min at room temperature. Cells were analyzed using an FC500 flow cytometer (Beckman Coulter) equipped with a 488-nm laser, and data from at least 10,000 cells were acquired for each sample. Cells were gated based on forward and side scatter, and doublets excluded by height/area analysis. Cell cycle percentages were calculated by curved fit using Weasel Version 3.0 (Walter and Eliza Hall Institute of Medical Research). Data shown are representative. All data sets were combined for the statistical analysis. A Sidak's multiple comparisons test was applied. N refers to the number of biological replicates. All curves and statistical analyses were produced using Prism 7 (GraphPad Software).
# NIH3T3 cells [9] = test: Cell cycle analysis (propidium iodide, flow cytometry), NIH3T3; format: cell-based; conditions: NIH3T3, 20 μM, 24 h, n = 5
# Experimental: as §4
molecule,measurement,setting,value
O=C1c2c(O)ccc(O)c2C(=O)c2c(NCCNCCO)ccc(NCCNCCO)c21 [mitoxantrone],cell death,Panc1 cells [1],dose-dependent cell death
same,USP11 inhibition,USP11,inhibits USP11
5TAMRA-KRKKKGKGLGKKRDPCLRKYKRRRRRRRRAEGEFYKLKIRTPR-NH2 [GET-FYLIR],cellular delivery,[2],efficiently delivered to all cell lines tested
same,endosomal escape,HeLa cells,efficiently escapes endosomal vesicles
same,subcellular localization,HeLa cells,"both the cell cytoplasm and the nucleus, with the highest accumulation in nucleoli"
same,cell viability effects,"Panc1 cells [3]; Panc1, 5 μM, uptake experiment, 1 and 24 h",cell viability effects in Panc1 but not NIH3T3 cells were observed
same,loss of viability,"Panc1 cells [3]; Panc1, 10 μM, 24 h, Presto Blue, n = 3 biological repeats",~50%
same,sensitivity to dose (viability),"Panc1 cells [3]; Panc1, up to 50 μM, 24 h, Presto Blue",particularly sensitive
same,cell viability,"[4]; BJ6, 10 μM",retained
same,cell viability,"[4]; BJ6, 20 μM",minimal effect
same,sensitivity to dose (viability),"[4]; BJ6, up to 50 μM",relatively insensitive
same,cell viability,"U87 cells; U87, 10 μM",retained
same,cell viability,"U87 cells; U87, 20 μM",minimal effect
same,cell viability effects,"NIH3T3 cells [5]; NIH3T3, 5 μM, uptake experiment, 1 and 24 h",cell viability effects in Panc1 but not NIH3T3 cells were observed
same,cell viability,"NIH3T3 cells [5]; NIH3T3, 10 μM",retained
same,cell viability,"NIH3T3 cells [5]; NIH3T3, 20 μM",minimal effect
same,cell uptake,"Panc1 cells [6]; Panc1, 1 μM",little difference in cell uptake in either cell type
same,cell uptake,"Panc1 cells [6]; Panc1, 5 μM",increased uptake in Panc1 cells for both 1- and 24-h incubations
same,cell uptake,"NIH3T3 cells [7]; NIH3T3, 1 μM, 1 h and 24 h",little difference in cell uptake in either cell type
same,cell uptake,"NIH3T3 cells [7]; NIH3T3, 5 μM, both incubation times",significantly lower than Panc1 cells
same,subG0 fraction,Panc1 cells [8]; from 0.9% untreated,8%
same,fraction of cells in S phase,Panc1 cells [8]; from 36.9% untreated,52.8%
same,fold increase of subG0 fraction,Panc1 cells [8]; versus untreated,~9 fold
same,subG0 fraction,"NIH3T3 cells [9]; from 0.2% untreated, not significant, p = 0.9992",0.8%
same,fraction of cells in S phase,"NIH3T3 cells [9]; from 24.8% untreated, p < 0.0001",37.5%
